According to PubChem BioAssay (NCI):
Values joined by “and” are separate entries in the source; they are usually repeats but may differ in a detail not shown here. Identical values can stand only once.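 Grown in 96-well plates, cells were treated for 48 hours with each compound at five concentrations. Insufficient inhibition: endpoint recorded as highest concentration tested. Here, GI50 denotes the concentration required for 50% inhibition of growth. TGI: total growth inhibition.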

Assays:
Assay in all cases: DTP human tumour cell line panel, 48 h
[1] = tested on: SK-MEL-5 melanoma
[2] = tested on: CAKI-1 renal
[3] = tested on: SF-268 CNS
[4] = tested on: COLO 205 colon
[5] = tested on: RPMI-8226 leukemia
[6] = tested on: MDA-N
[7] = tested on: TK-10 renal
[8] = tested on: PC-3 prostate
[9] = tested on: MDA-MB-231 breast
[10] = tested on: M14 melanoma

CN(CCO)/N=N/c1[nH]ncc1C(N)=O showed a TGI [1] of over 100 µM, a TGI [2] of over 100 µM and a TGI [3] of over 100 µM. It also gave a TGI [4] of over 100 µM and a TGI [5] of over 100 µM.

For C=CC1(c2ccc(OC)cc2)OCCCO1, the TGI [6] was over 100 µM, the TGI [1] was over 100 µM and the TGI [7] was over 100 µM. The TGI [3] was over 100 µM, the TGI [4] was over 100 µM and the TGI [8] was over 100 µM. The TGI [9] was over 100 µM, the TGI [10] was over 100 µM and the TGI [5] was over 100 µM.

COC(=O)C(Cc1nc2ccccc2[nH]c1=O)C(=O)C(=O)Nc1cc(C(F)(F)F)ccc1Cl (centres undefined) showed a TGI [6] of over 100 µM, a TGI [1] of 56 µM and a TGI [2] of 33.4 µM. It also gave a TGI [7] of 44 µM, a TGI [3] of 36.4 µM and a TGI [8] of 34.4 µM. It also gave a TGI [9] of 52.5 µM, a TGI [10] of 30.9 µM and a TGI [5] of 51.5 µM.

COc1ccccc1NCC(=O)Nn1c(C)nc2ccc(S(=O)(=O)Nc3ccccc3OC)cc2c1=O gave a TGI [6] of over 100 µM, a TGI [2] of over 100 µM and a TGI [7] of over 100 µM. It also gave a TGI [3] of over 100 µM, a TGI [4] of over 100 µM and a TGI [8] of over 100 µM. The TGI [9] was over 100 µM, the TGI [10] was over 100 µM and the TGI [5] was over 100 µM.

N#C/C(=C\c1ccccc1Br)C(=O)c1ccccc1 showed a TGI [1] of 34.6 µM, a TGI [2] of over 100 µM and a TGI [7] of over 100 µM. It also gave a TGI [3] of over 85.4 µM, a TGI [4] of over 100 µM and a TGI [10] of over 68.1 µM. It also gave a TGI [5] of 51.6 µM.

CC1CC[C@@]2(OC1)OC1C[C@H]3[C@@H]4CCC5CC(O)CC[C@]5(C)[C@H]4C/C(=N\N(C)C)[C@]3(C)C1[C@@H]2C (some centres undefined) gave a TGI [6] of 41.4 µM, a TGI [1] of 53.3 µM and a TGI [7] of 86.9 µM. For the same compound, the TGI [3] was 99.4 µM, the TGI [4] was 45 µM and the TGI [8] was 84.6 µM. It also gave a TGI [9] of 50.2 µM, a TGI [10] of over 100 µM and a TGI [5] of over 100 µM.

CC(=O)O[C@H]1CC[C@H]2[C@@H]3CCC(C(C)=O)[C@H](C(=O)O)[C@H]3CC[C@]12C (some centres undefined) was tested, and the TGI [1] was over 100 µM, the TGI [2] was over 100 µM and the TGI [7] was over 100 µM. For the same compound, the TGI [3] was over 100 µM, the TGI [4] was over 100 µM and the TGI [8] was over 100 µM. It also gave a TGI [9] of over 100 µM, a TGI [10] of over 100 µM and a TGI [5] of over 100 µM.

In the case of CCCCCCCCCCSCC(CO)NC(=O)/C=C/c1c(C)[nH]c(=O)[nH]c1=O (centres undefined), the TGI [1] is reported as 8.06 µM and 13.1 µM, the GI50 [2] is reported as 1.01 µM and 3.68 µM and the TGI [2] is reported as 8.25 µM and > 50 µM. The GI50 [3] was 0.895 µM, the TGI [3] was 10.2 µM and > 21.4 µM and the TGI [4] was 8.39 µM and 17.6 µM. It also gave a GI50 [5] of 19.7 µM and a TGI [5] of over 50 µM.

In the case of C/C=C1\CC(C(=O)OCC)CCCCCCCCCCC1=O (centres undefined), the TGI [6] is reported as over 100 µM, the TGI [1] is reported as over 100 µM and the TGI [2] is reported as over 100 µM. It also gave a TGI [7] of over 100 µM, a TGI [3] of over 100 µM and a TGI [4] of over 100 µM. The TGI [8] was over 100 µM, the TGI [9] was over 100 µM and the TGI [10] was over 100 µM.

CC(=O)n1ccc2c(Cl)ncnc21 gave a TGI [1] of over 100 µM, a TGI [2] of over 100 µM and a TGI [7] of over 100 µM. It also gave a TGI [3] of over 100 µM, a TGI [4] of over 100 µM and a TGI [10] of over 100 µM. The TGI [5] was over 100 µM.

Compound COc1cc2c(cc1OCCCCCOc1cc3c(cc1OC)C(=O)N1CCC[C@H]1CN3)N=C[C@@H]1CCCN1C2=O has a TGI [1] of 12.2 µM, a TGI [2] of 44.1 µM and a TGI [7] of 63.3 µM. The TGI [3] was 61.8 µM, the TGI [4] was over 100 µM and the TGI [8] was 61.5 µM. The TGI [9] was 9.48 µM and the TGI [10] was 10.8 µM.

With CC(C)N(C(C)C)P(OCCC#N)OC1CC(n2cnc3c(=O)[nH]cnc32)OC1COC(=O)NCCCCCCNC(=O)OC(C)(C)c1ccc(-c2ccccc2)cc1 (centres undefined) the TGI [1] was 40.9 µM, the TGI [2] was over 100 µM and the TGI [7] was over 100 µM. It also gave a TGI [3] of 57.5 µM, a TGI [4] of 31.2 µM and a TGI [10] of 34.6 µM. For the same compound, the TGI [5] was 76.1 µM.

C=CCC(SC)C1=C(C)C(=O)c2ccccc21 (centres undefined) was tested, and the TGI [6] was over 10 µM, the TGI [1] was over 10 µM and the TGI [7] was over 10 µM. For the same compound, the TGI [3] was over 10 µM, the TGI [8] was over 10 µM and the TGI [9] was over 10 µM. For the same compound, the TGI [10] was over 10 µM and the TGI [5] was over 10 µM.

In the case of CC(=O)C1(O)Cc2c(O)c3c(c(O)c2C(OC2CC(N)C(O)C(C)O2)C1)C(=O)c1ccccc1C3=O (centres undefined), the GI50 [6] is reported as 0.026 µM, the TGI [6] is reported as 0.404 µM and 0.211 µM and the GI50 [1] is reported as under 0.0119 µM. The TGI [1] was 0.33 µM and 0.0697 µM, the TGI [7] was 0.158 µM and the GI50 [3] was 0.0259 µM. For the same compound, the TGI [3] was 0.343 µM and 0.233 µM, the GI50 [4] was 0.0227 µM and the TGI [4] was 0.803 µM and 0.181 µM. It also gave a GI50 [8] of 0.0437 µM, a TGI [8] of 0.741 µM and a GI50 [9] of 0.0948 µM. For the same compound, the TGI [9] was 1.22 µM, the GI50 [10] was 0.0145 µM and the TGI [10] was 0.605 µM and 0.158 µM. The GI50 [5] was 0.0305 µM and < 0.0131 µM and the TGI [5] was 0.35 µM and 0.0968 µM.

Work on CCN(CC)CCNc1ccc2ncn3c4cc(=O)ccc4c(O)c1c23 yielded a TGI [1] of 12.1 µM, a TGI [2] of 13.4 µM and a TGI [7] of 47.1 µM. It also gave a TGI [3] of 12.1 µM, a TGI [4] of 16.6 µM and a TGI [10] of 14.4 µM. It also gave a TGI [5] of 9.97 µM.

CC(=O)CC(=O)/C=C/c1cccs1 was tested, and the TGI [1] was over 100 µM, the TGI [2] was over 100 µM and the TGI [7] was over 100 µM. For the same compound, the TGI [3] was over 100 µM, the TGI [4] was over 100 µM and the TGI [10] was over 100 µM. For the same compound, the TGI [5] was over 100 µM.

Work on OC(CN1CCCCC1)c1ccc(/C=C/c2ccc(Cl)cc2)cc1 (centres undefined) yielded a TGI [6] of over 100 µM, a TGI [1] of 43.8 µM and a TGI [7] of over 100 µM. The TGI [3] was over 100 µM, the TGI [4] was 36 µM and the TGI [8] was over 100 µM. For the same compound, the TGI [9] was over 100 µM, the TGI [10] was 41.9 µM and the TGI [5] was over 100 µM.
